# Tests used:
# Type in all cases: biochemical
# Conditions in all cases: 15 nM tritium labelled cAMP, 1 h at room temperature, SPA beads
# [1] = biological target: PDE1C (Homo sapiens, UniProt Q14123); experiment: PDE1 inhibition assay (PDE1C)
# Method: (§1) PDE1A, PDE1B and PDE1C assays were performed as follows: the assays was performed in 60 μL samples containing a fixed amount of the PDE1 enzym1 (sufficient to convert 20-25% of the cyclic nucleotide substrate), a buffer (50 mM HEPES pH 7.6; 10 mM MgCl2; 0.02% Tween20), 0.1 mg/ml BSA, 15 nM tritium labelled cAMP and varying amounts of inhibitors. Reactions were initiated by addition of the cyclic nucleotide substrate, and reactions were allowed to proceed for 1 h at room temperature before being terminated through mixing with 20 μL (0.2 mg) yttrium silicate SPA beads (PerkinElmer). The beads were allowed to settle for 1 h in the dark before the plates were counted in a Wallac 1450 Microbeta counter. The measured signals were converted to activity relative to an uninhibited control (100%) and IC50 values were calculated using XIFit (model 205, IDBS).
# [2] = biological target: PDE1B (Homo sapiens, UniProt Q01064); experiment: PDE1 inhibition assay (PDE1B)
# Method: as §1
# [3] = biological target: PDE1A (Homo sapiens, UniProt P54750); experiment: PDE1 inhibition assay (PDE1A)
# Method: as §1
# Chain of PDE1B (Q01064 whole entry): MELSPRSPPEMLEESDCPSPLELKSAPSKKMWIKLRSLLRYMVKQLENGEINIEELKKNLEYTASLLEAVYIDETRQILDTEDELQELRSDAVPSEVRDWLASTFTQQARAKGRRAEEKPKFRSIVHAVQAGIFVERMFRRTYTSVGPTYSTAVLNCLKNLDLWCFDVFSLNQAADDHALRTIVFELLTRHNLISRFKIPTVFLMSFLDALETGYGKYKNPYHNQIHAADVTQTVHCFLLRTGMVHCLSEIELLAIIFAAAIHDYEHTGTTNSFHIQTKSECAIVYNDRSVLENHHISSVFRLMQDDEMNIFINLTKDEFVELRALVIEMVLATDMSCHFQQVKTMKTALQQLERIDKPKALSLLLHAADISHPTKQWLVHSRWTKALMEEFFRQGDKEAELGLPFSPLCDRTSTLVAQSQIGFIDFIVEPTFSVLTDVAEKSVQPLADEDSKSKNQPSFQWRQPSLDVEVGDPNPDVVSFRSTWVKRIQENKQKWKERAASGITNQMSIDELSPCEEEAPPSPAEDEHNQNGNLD
# Chain of PDE1A (P54750 whole entry): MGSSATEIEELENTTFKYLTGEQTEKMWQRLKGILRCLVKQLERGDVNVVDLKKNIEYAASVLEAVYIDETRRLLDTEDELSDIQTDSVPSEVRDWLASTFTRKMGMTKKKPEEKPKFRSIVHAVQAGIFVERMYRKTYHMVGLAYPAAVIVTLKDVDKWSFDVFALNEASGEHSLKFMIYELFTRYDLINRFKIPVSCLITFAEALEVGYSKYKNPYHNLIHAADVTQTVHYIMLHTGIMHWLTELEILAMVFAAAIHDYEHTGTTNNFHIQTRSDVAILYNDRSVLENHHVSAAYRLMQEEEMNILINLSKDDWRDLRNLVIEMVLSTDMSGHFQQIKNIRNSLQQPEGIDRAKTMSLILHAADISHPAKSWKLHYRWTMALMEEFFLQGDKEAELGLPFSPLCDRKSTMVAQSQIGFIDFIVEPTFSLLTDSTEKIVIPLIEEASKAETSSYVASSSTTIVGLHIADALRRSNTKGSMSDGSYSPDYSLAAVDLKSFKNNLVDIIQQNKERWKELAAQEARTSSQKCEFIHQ
# Chain of PDE1C (Q14123 whole entry): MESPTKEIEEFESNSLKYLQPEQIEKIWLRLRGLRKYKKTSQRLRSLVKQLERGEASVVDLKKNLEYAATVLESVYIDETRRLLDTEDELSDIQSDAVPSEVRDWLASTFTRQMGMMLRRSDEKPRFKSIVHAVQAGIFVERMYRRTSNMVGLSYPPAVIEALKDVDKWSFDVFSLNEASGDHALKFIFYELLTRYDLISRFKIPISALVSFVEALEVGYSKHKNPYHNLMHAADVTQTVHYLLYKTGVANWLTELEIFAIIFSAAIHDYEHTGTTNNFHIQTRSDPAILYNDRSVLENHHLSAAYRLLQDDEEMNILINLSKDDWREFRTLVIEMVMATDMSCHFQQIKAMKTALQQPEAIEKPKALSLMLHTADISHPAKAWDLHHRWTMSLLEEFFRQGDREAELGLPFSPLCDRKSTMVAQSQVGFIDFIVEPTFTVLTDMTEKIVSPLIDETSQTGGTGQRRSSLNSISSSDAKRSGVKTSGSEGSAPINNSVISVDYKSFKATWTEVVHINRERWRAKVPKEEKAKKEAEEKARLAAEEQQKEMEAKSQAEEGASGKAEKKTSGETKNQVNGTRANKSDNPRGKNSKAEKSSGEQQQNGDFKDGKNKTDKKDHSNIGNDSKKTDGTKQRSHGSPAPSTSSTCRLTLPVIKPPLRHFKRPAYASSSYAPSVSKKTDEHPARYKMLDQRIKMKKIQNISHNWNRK
IC50 [1],IC50 [2],IC50 [3],Compound
0.12 µM,0.12 µM,0.16 µM,"COc1ccc2c(N3CC[C@@H]4OCC[C@@H]43)ncnc2c1OC (single isomer, unassigned) [Compound 1]"
2.8 µM,3.7 µM,3.2 µM,"COc1ccc2c(N3CC[C@H]4OCC[C@H]43)ncnc2c1OC (single isomer, unassigned) [Compound 2]"

# — patent US9718832B2, “Hexahydrofuropyrroles as PDE1 inhibitors” (H. Lundbeck A/S, priority 2014, dated 2017)
